Reference: patent publication US9101579B2, “Inhibition of drug resistant cancer cells” (Celgene Corporation, priority 2012, dated 2015)
“Also recorded” adds a separate entry of the source.

Assays:
M14 melanoma cell line = assay: Drug treatment and CellTiter-Glo cell viability assay, emergence of drug-tolerant expanded persisters (DTEP) in M14 cells; type: cell-based; conditions: for emergence of DTEPs, continuous co-treatment: 2 μM AZ628 + 0.5 nM (sub-lethal) romidepsin every 3 days, continuous schedule 45 days, FIG. 1
Experimental: (§1) The M14 melanoma and HCC827 non-small cell lung cancer cell (NSCLC) cell lines were purchased from American Type Culture Collection (ATCC; Manassas, Va.). Cells were cultured at 37° C./5% CO2 in RPMI-1640 medium (ATCC) supplemented with 10% FBS. AZ628 and Erlotnib were purchased from Selleck Chemicals (Houston, Tex.) and reconstituted in DMSO to 20 mM. Romidepsin (Celgene Corporation) was reconstituted in DMSO to 10 μM. All drugs were stored at −30° C.
(§2) Romidepsin was used at a final concentration of 1 nM for HCC827 cells and 0.5 nM for M14 cells. Conditioned media were replaced with fresh drug-containing media every three days (“continuous Q3D” schedule). The Q3D schedule was evaluated continuously over a period of 27-45 days, and also for shorter durations ranging from 3-21 days.
(§3) Cell viability was monitored periodically over 27-45 days using CellTiter-Glo (CTG). On select days, an equal volume (1 mL) of CTG was added to each well of the 24-well plates. The plates, wrapped with aluminum foil, were incubated on a shaking platform for 10 minutes. A 200 μL aliquot from each well was transferred to a new well of 96-well plates. The SpectraMax L (Molecular Devices; Sunnyvale, Calif.) was used to measure luminescence.

[1] = test system: HCC827 non-small cell lung cancer cell line; assay: Drug treatment and CellTiter-Glo cell viability assay, emergence of drug-tolerant expanded persisters (DTEP) in HCC827 cells; type: cell-based
Experimental: as §1, §2, §3
Conditioned medium was replaced with fresh drug-containing medium every three days. Starting on day 12, the drug-containing medium also included 1 nM romidepsin. Cell viability was monitored on days 0, 15, and 37 using CellTiter-Glo (CTG).

Compound: Cc1ccc(NC(=O)c2cccc(C(C)(C)C#N)c2)cc1Nc1ccc2ncn(C)c(=O)c2c1 [AZ628]
- outgrowth of DTPs into DTEPs under continued AZ628 alone (M14 melanoma cell line; M14 cells, continued treatment with AZ628 2 μM every 3 days): yielding a large population of AZ628-resistant cells
- cell death on treatment with AZ628 alone (M14 melanoma cell line; M14 cells, high concentration (100×IC50; 2 μM) AZ628, after 9 days): Massive cell death

Compound: C#Cc1cccc(Nc2ncnc3cc(OCCOC)c(OCCOC)cc23)c1 [Erlotinib]
- cell death on treatment with Erlotinib alone ([1]; NSCLC (HCC827) cells, high concentration (100×IC50; 2 μM) Erlotinib, after 9 days): Massive cell death

Compound: C/C=C1\NC(=O)[C@H]2CSSCC/C=C/[C@H](CC(=O)N[C@H](C(C)C)C(=O)N2)OC(=O)[C@H](C(C)C)NC1=O [romidepsin, (1S,4S,7Z,10S,16E,21R)-7-ethylidene-4,21-bis(1-methylethyl)-2-oxa-12,13-dithia-5,8,20,23-tetrazabicyclo[8.7.6]tricos-16-ene-3,6,9,19,22-pentone]
- emergence of DTEP, reduced romidepsin schedule (M14 melanoma cell line; M14 cells treated with 2 μM AZ628, romidepsin 0.5 nM every 3 days for 2 weeks, FIGS. 3A and 3B): prevented the emergence of DTEP
- number of romidepsin doses sufficient to prevent emergence of DTEP (M14 melanoma cell line; M14 cells treated with 2 μM AZ628, romidepsin 0.5 nM every 3 days, FIGS. 3A and 3B): 5 doses
- emergence of DTEPs, continuous co-treatment (M14 melanoma cell line; M14 cells): prevented the DTEP emergence
- emergence of DTEPs, continuous co-treatment (M14 melanoma cell line; M14 cells, listed as romidespin): prevented the emergence of DTEPs
- DTEP growth, short (6-hour) romidepsin exposure (wash-out) (M14 melanoma cell line; M14 cells, 2 μM AZ628, higher romidepsin concentration (0.5, 2 or 10 nM tested), 6-hour exposure on continuous schedule, FIG. 4A): sufficient to prevent DTEP growth
- Erlotinib-resistant cells after delayed addition of romidepsin ([1]; HCC827 cells pretreated with 2 μM Erlotinib every 3 days, 1 nM romidepsin added from day 12, viability on days 0, 15, 37, FIG. 5): eliminated Erlotinib-resistant HCC827 cells
- emergence of DTEPs, reduced romidepsin schedule ([1]; HCC827 cells treated with 2 μM Erlotinib, romidepsin 1.0 nM every 3 days for 2 weeks, FIG. 3C): prevented the emergence of DTEPs
- number of romidepsin doses sufficient to prevent emergence of DTEP ([1]; HCC827 cells treated with 2 μM Erlotinib, romidepsin 1.0 nM every 3 days, FIG. 3C): 4 doses
- emergence of DTEPs, continuous co-treatment ([1]; HCC827 cells, 2 μM Erlotinib + 1.0 nM (sub-lethal) romidepsin every 3 days, continuous schedule 27 days, FIG. 2): prevented the emergence of DTEPs; also recorded: prevented the DTEP emergence
- DTEP growth, short (6-hour) romidepsin exposure (wash-out) ([1]; HCC827 cells, 2 μM Erlotinib, higher romidepsin concentration (1, 5 and 20 nM tested), 6-hour exposure on continuous schedule, FIG. 4B): sufficient to prevent DTEP growth
